The source of these data is US4237311A, “2-Methyl-1-(substituted)phenyl-2-propyl esters of 2-aminopropanoic acid” (priority 1974, dated 1980).

Broadly, the ED50 is the midpoint of the dose-response relation. A word on the LD50: it is the dose expected to kill half of the subjects tested.

The structures appear in SMILES notation.

Series [1] has as its system 5-HT uptake (5-hydroxytryptamine). Kind of series: Inhibition of the uptake of 14C-5-HT (drug given i.p. in vivo, uptake in midbrain slices). The arrangement: species or system mice. The conditions noted are these: ip, 0.5 h, half an hour before killing, mouse midbrain slices, 5-HT 1×10^-7 M, 5 min incubation, read-out: Inhibition (50%) of uptake in vivo, 5-HT (ED50). Here is the method:
(§1) 1. Inhibition of the uptake of carbon-14 5-HT and tritiated noradrenaline in vitro and in vivo
The method is described by Ross, Renyi and Ogren in European Journal of Pharmacology 17 (1972), 107-112. […] The drugs were administered intraperitoneally half an hour before the animals were killed and the midbrain was taken out and sliced and incubated in a mixture consisting of, per 100 mg of brain slices, 0.2 n-mole of ^14 C--5--HT, 0.2 n-mole of ^3 H--NA and 11 μmole of glucose in 2 ml of Krebs-Henseleit buffer, pH 7.4. The incubation time was 5 minutes. The radioactive amines taken up in the slices were dissolved in Soluene-350®(Packard) and the amounts were determined with the double labelling technique by liquid scintillation. The dose producing 50 percent decrease of the active uptake (ED50) was determined graphically from dose response curves. Active uptake is defined as that part of the radioactive uptake which is inhibited by a high concentration of cocaine. All doses were given at least to four animals.

Series [2] deals with NA uptake (noradrenaline). Briefly: Inhibition of the uptake of tritiated noradrenaline (drug given i.p. in vivo, uptake in midbrain slices). The arrangement: species or system mice. The note with it: ip, 0.5 h, half an hour before killing, mouse midbrain slices, noradrenaline 1×10^-7 M, 5 min incubation, read-out: Inhibition (50%) of uptake in vivo, NA (ED50). Here is the method: as §1
The drugs were administered intraperitoneally half an hour before the animals were killed and the midbrain was taken out and sliced and incubated in a mixture consisting of, per 100 mg of brain slices, 0.2 n-mole of ^14 C--5--HT, 0.2 n-mole of ^3 H--NA and 11 μmole of glucose in 2 ml of Krebs-Henseleit buffer, pH 7.4. The incubation time was 5 minutes. The radioactive amines taken up in the slices were dissolved in Soluene-350®(Packard) and the amounts were determined with the double labelling technique by liquid scintillation. The dose producing 50 percent decrease of the active uptake (ED50) was determined graphically from dose response curves. Active uptake is defined as that part of the radioactive uptake which is inhibited by a high concentration of cocaine. All doses were given at least to four animals.

Series [3] has as its system 5-HTP response. Briefly: 5-HTP response potentiation test. The class given is in vivo, mice. The note with it: for minimal effective dose: Mus musculus, ip, test drug one hour (or 4, 24 hours) before dl-5-HTP 90 mg/kg i.v., mice, read-out: Potentiation of 5-HTP, effective dose (least dose producing maximal score +3 in all animals). An excerpt:
1. 5-HTP response potentiation test
Inhibition of the uptake of 5-HT potentiates the effects of administered 5-hydroxytryptophan (5-HTP) probably by increasing the amount of 5-HT at the receptor. […] The strength of the syndrome is scored from 0 to +3.

The nature of series [4]: in vivo. The note with it: mouse, iv, mice, killing 50% within 7 days, read-out: Acute toxicity LD50. Here is the method: ACUTE TOXICITY, BEHAVIOUR AND ANTICHOLINERGIC STUDY IN MICE
The compounds were given by intravenous route to 6 mice. LD50 is the dose which kills 50% of the animals within 7 days. Seizures, gait, sedation and gripstrength were recorded.

The test system of series [5] is male rats. Briefly: Drug induced arrhythmias in rats. The class given is in vivo. The note with it: male rats anesthetized with Nembutal, stepwise increased doses. An excerpt: DRUG INDUCED ARRHYTHMIAS IN RATS
Test drugs were intravenously administered to male rats anesthetized with Nembutal®. The doses were increased stepwise up to the lethal dose and the first dose which induced arrhythmia was noted.

Series [6] concerns noradrenaline (NA) re-uptake mechanism. The conditions noted are these: central nervous system; cited from earlier work.
In series [7] the test system is 5-hydroxytryptamine (5-HT) re-uptake mechanism. The note with it: central nervous system; cited from earlier work.
For series [8], the system named is man. The conditions noted are these: cited from earlier work.

For `CC(N)C(=O)OC(C)(C)Cc1ccc(Cl)cc1.Cl` (centres unmarked) [GEA 654, 2-aminopropanoic acid 1-(4-chlorophenyl)-2-methyl-2-propylester hydrochloride], the figures for the ED50 in series [1] and in series [2] were 15 mg/kg and over 40 mg/kg, respectively. Besides, the minimal effective dose in series [3] worked out at 1 mg/kg. Further, the LD50 at 168 h in series [4] worked out at 70 mg/kg. Besides, the “Arrhythmia, accumulated i.v. dose where there are signs of arrhythmia” value in series [5] is given as 63 mg/kg.

As to `CC(N)C(=O)OC(C)(C)Cc1ccc(Cl)c(Cl)c1` (centres unmarked) [GEA 699], the values for the ED50 in series [1] and in series [2] were 15 mg/kg and over 40 mg/kg, respectively. Besides, the minimal effective dose in series [3] amounted to 7 mg/kg.

Consider `CC(N)C(=O)OC(C)(C)Cc1ccc(F)cc1` (centres unmarked) [GEA 822], for which the results for the ED50 in series [1] and in series [2] were 30 mg/kg and over 40 mg/kg, respectively.

Turning to `CC(N)C(=O)OC(C)(C)Cc1ccccc1` (centres unmarked) [GEA 916], the values for the ED50 in series [1] and in series [2] were 15 mg/kg and over 40 mg/kg, respectively. The minimal effective dose in series [3] stood at 8 mg/kg.

Take `CC(N)C(=O)OC(C)(C)Cc1ccc(Br)cc1` (centres unmarked) [GEA 917]: the ED50 in series [1] is 25 mg/kg; in series [2], over 40 mg/kg. The minimal effective dose in series [3] turned out to be 5 mg/kg.

With `CC(N)C(=O)OC(C)(C)Cc1cccc(Cl)c1` (centres unmarked) [GEA 935], the ED50 in series [1] is 5 mg/kg; in series [2], over 40 mg/kg. In addition, the minimal effective dose in series [3] came to 3 mg/kg.

Turning to `Cc1ccc(CC(C)(C)OC(=O)C(C)N)cc1` (centres unmarked) [GEA 937], the ED50 is 10 mg/kg in series [1] and over 40 mg/kg in series [2]. In series [3], the minimal effective dose turned out to be 12 mg/kg.

For the molecule `CN(C)CCCN1c2ccccc2CCc2ccccc21` [Imipramine], the ED50 in series [1] came to 24 mg/kg. Besides, the ED50 in series [2] turned out to be 6 mg/kg. The minimal effective dose in series [3] amounted to 15 mg/kg. In series [3] (control groups, reference), the “potentiation of dl-5-HTP by the reference drug (in words)” value is on record as “constantly potentiated dl-5-HTP”. The “Arrhythmia, accumulated i.v. dose where there are signs of arrhythmia” value in series [5] is 8 mg/kg. Besides, the “inhibition of the re-uptake mechanism of noradrenaline (in words)” value in series [6] is “inhibits the re-uptake mechanism of noradrenaline (NA)”. In addition, in series [7], the “inhibition of the re-uptake mechanism of 5-hydroxytryptamine (in words)” value is “inhibits the re-uptake mechanism of noradrenaline (NA) and 5-hydroxytryptamine (5-HT)”. In addition, in series [8], the “anticholinergic effect and symptoms (in words)” value was “anticholinergic and causes anticholinergic symptoms such as dryness of the mouth, tremor, tachycardia and sweating”; the “mood and psychomotor effect (in words)” value was “both mood elevating and psychomotor activating”. Also, the “onset of the antidepressive effect” value in series [8] (treatment with imipramine) is recorded as “about 3 weeks”.
